Source: patent US7371555B2, “Polypeptides having α-H-α-amino acid amide racemase activity and nucleic acids encoding the same” (DSM IP Assets B.V., priority 2002, dated 2008)

Columns and labels:
[1] = Stability of substrate in chemical blanks (HEPES-NaOH buffer without cells); type: physicochemical; settings: HEPES-NaOH buffer pH 7.7, 139 hours, concentration constant (0.7 w/w %)
Procedure: 1 ml Of disintegrated cells of each of the three strains was incubated in a HEPES-NaOH buffer (20 mM) pH 7.7, to which pyridoxal-5-phosphate (0.01 mM) was added as a cofactor and D-leucine amide (60.8 mM) as a substrate in a total volume of 10 ml (0.79 w/w % D-leucine amide). After 0 and 139 hours 1 ml samples were taken (of which the exact weight was measured) and the reaction in these samples was stopped by adding 1 ml methanol (of which the exact weight was measured too; to be able to calculate dilution factors). Stopped reaction mixtures were centrifuged to remove particulates. The supernatants were frozen at −86° C. until HPLC analysis according to the method given in Example 1. […]
From the table it can be seen that α-H-α-amino acid amide racemase activity is present in the disintegrated cells of Agrobacterium rhizogenes Na, Agrobacterium rhizogenes Bi and Arthrobacter nicotianae as D-leucine amide is converted into L-leucine; this conversion is not detected in the chemical blanks. In the chemical blanks no D-leucine or L-leucine could be detected even after 139 hours; the D-leucine amide concentration was constant (0.7 w/w %) meaning that D-leucine amide is very stable under the applied reaction conditions.

[2] = system: E. coli DH10B/pOA(1)PLV49B10 cells containing the α-H-α-amino acid amide racemase gene from Ochrobactrum anthropi IA; assay: Racemase activity test with D-leucine amide and whole E. coli cells (Example 5); type: cell-based; settings: Strain A
Procedure: A single colony of E. coli DH10B containing plasmid pOA(1)PLV49B10 was transferred to LB medium with kanamycin (50 mg/l) to prepare a pre-culture. After overnight incubation at 28° C. and 200 rpm, this pre-culture was used to inoculated a flask with 500 ml of 2*TY medium (10 g/l Yeast extract, 16 g/l Tryptone, 5 g/l NaCl) containing kanamycin (50 mg/l). After overnight growth at 28° C. (OD620nm=4.4) and 200 rpm, cells were harvested by centrifugation (15 min. at 6,200×g, 4° C.), and washed with 50 mM HEPES-NaOH buffer of pH 7.7.
The cell pellets from both cultures were subsequently washed and resuspended in 25 ml of 50 mM HEPES-NaOH buffer, pH 7.7. Aliquots of 2 ml of both cell suspensions were centrifuged once more and the pellets were stored at −20° C. until execution of the activity tests described below. The remaining part of these cell suspensions was stored at −20° C. for use in Example 6.
To determine the activity of E. coli/pOA(1)PLV49B10 and the E. coli control, the above-mentioned cell pellets were thawed and resuspended to a total volume of 1 ml with 50 mM HEPES-NaOH buffer, pH 7.7. Then, reaction mixtures of 10 ml each were prepared containing 50 mM HEPES-NaOH buffer (pH 7.7), 10 μM pyridoxal-5-phosphate (PLP), 2.5 wt % of D-leucine amide, if applicable 20 mM of EDTA to suppress the E. coli amidase activity, and 0.5 ml of the E. coli/pOA(1)PLV49B10 and E. coli DH10B/pZErO-GFPuv-wrong-orientation cell suspensions or water (for chemical blanks). Reactions were started by the addition of the cells. Reaction mixtures were incubated at 30° C. and 175 rpm. Directly after addition of the cells (t=0 hours) and after 27 and 43 hours samples were taken in which the reaction was stopped by removal of the cells via centrifugation followed by 0.22 μM filtration. Finally, the filtered samples were stored at −20° C. until analysis by chiral HPLC as described below: • column: Sumichiral OA5000 from Sumika (150×4.6 mm I.D., 5μ)+guard column • eluent: 85 v/v % 2 mM CuSO4+15 v/v % methanol • flow: 1.0 ml/min. • column temp.: 40° C. • inj. volume: 5 μl • detection: fluorescence detection after post-column reaction with o-phthalaldehyde and 2-mercaptoethanol (wavelength ex=338 nm and em>420 nm)

[3] = system: α-H-α-amino acid amide racemase from Arthrobacter nicotianae NCIMB 41126; assay: Substrate specificity, CFE from E. coli DH10B/pAn(1)PLV36D06 (Example 9); type: biochemical; settings: relative to the activity towards D-leucine amide; 75 mM substrate, pH 8.0, 37° C.
Procedure: Preparation of the CFE of E. coli DH10B/pAn(1)PLV36D06 was performed as described in Example 7 for E. coli TOP10/pKEC_AZAR—3
Before applying the CFE from E. coli DH10B/pAn(1)PLV36D06 in the reactions with different enantiomerically pure α-H-α-amino acid amides to determine the substrate specificity of the A. nicotianae α-H-α-amino acid amide racemase, the E. coli amidases/aminopeptidases in this CFE were inhibited by a pre-treatment with an inhibitor cocktail. One tablet of Complete Mini Protease Inhibitor Cocktail (Roche Applied Science, Mannheim, Germany) was dissolved in 9 ml of the CFE followed by an incubation of 1 hour at room temperature. Next, reaction mixtures of 10 ml each (including the CFE) were prepared containing 50 mM HEPES-NaOH, pH 8.0, 20 μM pyridoxal-5-phosphate, 0.4 mg/ml BSA, 1 mM dithiothreitol and 75 mM of one of the amino acid amides tested. Reactions were started by the addition of 1 ml of the pre-treated CFE of E. coli DH10B/pAn(1)PLV36D06 or E. coli TOP10/pBAD/Myc-HisC (blank) and were incubated at 37° C. At regular time intervals samples of 1 ml were taken and transferred to vials containing 1 ml of 1M H3PO4 to stop the reaction. After sufficient dilution of the samples in 0.4 M borate buffer pH 9.4, the mixtures obtained were analyzed using HPLC to determine the exact concentrations of the two amino acid and two amino acid amide enantiomers according to the method of Example 7.

[4] = with 20 mM EDTA, incubation time 27 h
[5] = with 20 mM EDTA, incubation time 43 h
[6] = without 20 mM EDTA, incubation time 27 h
[7] = without 20 mM EDTA, incubation time 43 h

CC(C)C[C@@H](N)C(N)=O [D-leucine amide]
stability under the applied reaction conditions [1]: very stable | D-leucine amide ([2]; with 20 mM EDTA, incubation time 0 h): 2.61 wt % | D-leucine [2, 4]: 0.003 wt % | D-leucine amide [2, 4]: 1.77 wt % | L-leucine [2, 4]: 0.313 wt % | L-leucine amide [2, 4]: 0.555 wt % | D-leucine [2, 5]: 0.006 wt % | D-leucine amide [2, 5]: 1.59 wt % | L-leucine [2, 5]: 0.345 wt % | L-leucine amide [2, 5]: 0.772 wt % | D-leucine amide ([2]; without 20 mM EDTA, incubation time 0 h): 2.63 wt % | D-leucine [2, 6]: 0.009 wt % | D-leucine amide [2, 6]: 1.03 wt % | L-leucine [2, 6]: 1.71 wt % | L-leucine amide [2, 6]: 0.170 wt % | D-leucine [2, 7]: 0.017 wt % | D-leucine amide [2, 7]: 0.512 wt % | L-leucine [2, 7]: 2.12 wt % | L-leucine amide [2, 7]: 0.063 wt % | Rel. initial activity [3]: 100%
